The values below come from patent publication US20230107642A1 (Erasca, Inc., priority 2020, published 2023).

SMILES strings stand for the structures.

This series is described as follows: Determination of total drug concentration in rat brain (BBB penetration). In kind it is in vivo. To be noted: male SD rat, 2 mg/kg IV infusion for 4 hours, brain collected at end of 4 hours. As for the experimental part:
BB. Example 9: Determination of Total Drug Concentration in Rat Brain
In Vivo Experimental Procedures
Infuse male SD rat at 2 mg/kg dose for 4 hours through IV administration route. Collect brain tissues at the end of 4 hours.
Sample Preparation Procedures
Dilute brain tissue by adding homogenization solvent (1:4, w/v). Homogenize diluted brain tissue samples. Extract analyte by adding organic solvent (1:4, v/v) with spiked internal standard. Vortex and centrifuge the samples. Remove supernatant and dilute with HPLC compatible solvent (1:3, v/v).
Inject diluted extract into LC-MS/MS system using reversed phase high performance liquid chromatography coupled with electrospray ionization and selected reaction monitoring. Determine the total drug concentration in brain samples by quantitating against the standard curve prepared using the same matrix.
The following data provides blood brain barrier (BBB) penetration activity for a selection of inventive compounds where were directly compared to sotorasib and adagrasib (concentration in brain measured in ng/g).
Compounds that were measured as having a total concentration in the brain of at least 60 ng/g are indicated as “+”.
On to `C=CC(=O)N1[C@H](C)CN(c2nc(=O)n3c4c(c(-c5cc(Br)c(F)cc5F)c(C(F)(F)F)cc24)SC[C@@H]3CC)C[C@@H]1C` (atropisomer, axis not shown) [Example 13-6], for which the BBB activity entry is reported as “+ (Compounds that were measured as having a total concentration in the brain of at least 60 ng/g are indicated as “+”)”.
On to `C=CC(=O)N1C[C@H](C)N(c2nc(=O)n3c4c(c(-c5cc(Cl)c(F)cc5F)c(C(F)(F)F)cc24)CC[C@@H]3CN2CCC3(CC2)COC3)C[C@H]1C` [Example 13-74], for which the BBB activity result is given as “− (Compounds that did not meet this threshold are indicated as “−”)”.
`C=CC(=O)N1CCN(c2nc(=O)n3c4c(c(-c5ccc(F)cc5F)c(C(F)(F)F)cc24)SC[C@@H]3CC2CCOCC2)[C@@H](C)C1` [Example 13-88]: the BBB activity entry is recorded as “− (Compounds that did not meet this threshold are indicated as “−”)”.
`C=CC(=O)N1[C@H](C)CN(c2nc(=O)n3c4c(c(-c5cc(Cl)c(F)cc5F)c(C(F)(F)F)cc24)CC[C@@H]3CC2CCC3(CC2)COC3)C[C@@H]1C` [Example 13-63]: the BBB activity entry was “− (Compounds that did not meet this threshold are indicated as “−”)”.
For the compound `C=CC(=O)N1CCN(c2nc(=O)n3c4c(c(-c5cc(Cl)c(F)cc5F)c(Cl)cc24)SC[C@@H]3CN2CCN(C3CC3)CC2)[C@@H](C)C1` [Example 13-27], the BBB activity entry is on record as “+ (Compounds that were measured as having a total concentration in the brain of at least 60 ng/g are indicated as “+”)”.
For the compound `C=CC(=O)N1CCN(c2nc(=O)n3c4c(c(-c5ccc(F)cc5F)c(Cl)cc24)SCC3)[C@@H](C)C1` [Example 13-43], the BBB activity result is recorded as “+ (Compounds that were measured as having a total concentration in the brain of at least 60 ng/g are indicated as “+”)”.
Under `C=CC(=O)N1C[C@H](C)N(c2nc(=O)n3c4c(c(-c5ccc(F)cc5F)c(C(F)(F)F)cc24)SC[C@@H]3COC)C[C@H]1C` (atropisomer, axis not shown) [Example 13-1] stands “+ (Compounds that were measured as having a total concentration in the brain of at least 60 ng/g are indicated as “+”)”; under `C=CC(=O)N1[C@H](C)CN(c2nc(=O)n3c4c(c(-c5cc(Cl)c(F)cc5F)c(C(F)(F)F)cc24)SC[C@@H](OCC)C3)C[C@@H]1C` (atropisomer, axis not shown) [Example 13-77], “− (Compounds that did not meet this threshold are indicated as “−”)”.
With `C=CC(=O)N1[C@H](C)CN(c2nc(=O)n3c4c(c(-c5ccc(F)cc5)c(C(F)(F)F)cc24)SC[C@H](OCC)C3)C[C@@H]1C` [Example 13-41], the BBB activity entry was “+ (Compounds that were measured as having a total concentration in the brain of at least 60 ng/g are indicated as “+”)”.
On to `C=CC(=O)N1CCN(c2nc(=O)n3c4c(c(-c5ccc(F)cc5)c(C(F)(F)F)cc24)SC[C@@H]3CN2CCN(C3CC3)CC2)CC1` [Example 13-33], for which the BBB activity entry is listed as “+ (Compounds that were measured as having a total concentration in the brain of at least 60 ng/g are indicated as “+”)”.
As to `C=CC(=O)N1C[C@H](C)N(c2nc(=O)n3c4c(c(-c5cc(Br)c(F)cc5F)c(C(F)(F)F)cc24)SCC2(COC2)C3)C[C@H]1C` [Example 13-23], the BBB activity result is reported as “+ (Compounds that were measured as having a total concentration in the brain of at least 60 ng/g are indicated as “+”)”.
For `C=CC(=O)N1[C@H](C)CN(c2nc(=O)n3c4c(c(-c5ccc(F)cc5F)c(C(F)(F)F)cc24)SC[C@@H]3CN2CCN(C3CC3)CC2)C[C@@H]1C` [Example 13-26], the BBB activity result was “+ (Compounds that were measured as having a total concentration in the brain of at least 60 ng/g are indicated as “+”)”.
For `C=CC(=O)N1CCN(c2nc(=O)n3c4c(c(-c5c(F)cc(F)c6ccccc56)c(Cl)cc24)SCC3)[C@@H](C)C1` [Example 13-67] the value was “− (Compounds that did not meet this threshold are indicated as “−”)”; for `C=CC(=O)N1[C@H](C)CN(c2nc(=O)n3c4c(c(-c5ccc(F)cc5)c(C(F)(F)F)cc24)SCC(COC)(COC)C3)C[C@@H]1C` [Example 13-89], “− (Compounds that did not meet this threshold are indicated as “−”)”.
Regarding `C=CC(=O)N1[C@H](C)CN(c2nc(=O)n3c4c(c(-c5cc(Cl)c(F)cc5F)c(C(F)(F)F)cc24)SC[C@@H]3CN2C[C@@H]3C[C@H]2CO3)C[C@@H]1C` [Example 13-46], the BBB activity entry was “+ (Compounds that were measured as having a total concentration in the brain of at least 60 ng/g are indicated as “+”)”.
Under `C=CC(=O)N1[C@H](C)CN(c2nc(=O)n3c4c(c(-c5cc(I)c(F)cc5F)c(C(F)(F)F)cc24)SC[C@@H]3COC)C[C@@H]1C` [Example 13-19] stands “+ (Compounds that were measured as having a total concentration in the brain of at least 60 ng/g are indicated as “+”)”; under `C=CC(=O)N1[C@H](C)CN(c2nc(=O)n3c4c(c(-c5ccc(F)cc5F)c(C(F)(F)F)cc24)SC[C@@H](OC)C3)C[C@@H]1C` [Example 13-72], “− (Compounds that did not meet this threshold are indicated as “−”)”.
Regarding `C=CC(=O)N1CCN(c2nc(=O)n3c4c(c(-c5cc(Cl)c(F)cc5F)c(C(F)(F)F)cc24)SC[C@@H]3CN2CCN(C3CC3)CC2)CC1` [Example 13-30], the BBB activity entry is on record as “+ (Compounds that were measured as having a total concentration in the brain of at least 60 ng/g are indicated as “+”)”.
As for `C=CC(=O)N1[C@H](C)CN(c2nc(=O)n3c4c(c(-c5ccc(F)cc5)c(C(F)(F)F)cc24)SC[C@@H]3CN2CCN(C3CC3)CC2)C[C@@H]1C` [Example 13-22], the BBB activity entry is “+ (Compounds that were measured as having a total concentration in the brain of at least 60 ng/g are indicated as “+”)”.
On to `C=CC(=O)N1[C@H](C)CN(c2nc(=O)n3c4c(c(-c5cc(Cl)c(F)cc5F)c(C(F)(F)F)cc24)SC[C@@H](OC)C3)C[C@@H]1C` (atropisomer, axis not shown) [Example 13-39], for which the BBB activity result is on record as “+ (Compounds that were measured as having a total concentration in the brain of at least 60 ng/g are indicated as “+”)”.
Turning to `C=CC(=O)N1[C@H](C)CN(c2nc(=O)n3c4c(c(-c5cc(Br)c(F)cc5F)c(C(F)(F)F)cc24)SCC2(COC2)C3)C[C@@H]1C` [Example 13-36], the BBB activity entry is recorded as “+ (Compounds that were measured as having a total concentration in the brain of at least 60 ng/g are indicated as “+”)”.
For `C=CC(=O)N1[C@H](C)CN(c2nc(=O)n3c4c(c(-c5cc(Cl)c(F)cc5F)c(C(F)(F)F)cc24)SC[C@@H]3CN2CCN(C3CC3)CC2)C[C@@H]1C` [Example 13-28] the value was “+ (Compounds that were measured as having a total concentration in the brain of at least 60 ng/g are indicated as “+”)”; for `C=CC(=O)N1C[C@H](C)N(c2nc(=O)n3c4c(c(-c5cc(Cl)c(F)cc5F)c(C(F)(F)F)cc24)SCC2(COC2)C3)C[C@H]1C` [Example 13-31], “+ (Compounds that were measured as having a total concentration in the brain of at least 60 ng/g are indicated as “+”)”; for `C=CC(=O)N1CCN(c2nc(=O)n3c4c(c(-c5ccc(F)cc5F)c(C(F)(F)F)cc24)SC[C@@H]3COC)CC1` [Example 13-14], “+ (Compounds that were measured as having a total concentration in the brain of at least 60 ng/g are indicated as “+”)”.
Consider `C=CC(=O)N1[C@H](C)CN(c2nc(=O)n3c4c(c(-c5ccc(F)cc5)c(C(F)(F)F)cc24)SC[C@H](c2ccccc2)C3)C[C@@H]1C` [Example 13-47], for which the BBB activity entry is listed as “− (Compounds that did not meet this threshold are indicated as “−”)”.
As to `C=CC(=O)N1[C@H](C)CN(c2nc(=O)n3c4c(c(-c5ccc(F)cc5F)c(C(F)(F)F)cc24)SC[C@@H]3COC)C[C@@H]1C` (atropisomer, axis not shown) [Example 13-15], the BBB activity entry is reported as “+ (Compounds that were measured as having a total concentration in the brain of at least 60 ng/g are indicated as “+”)”.
Under `C=CC(=O)N1[C@H](C)CN(c2nc(=O)n3c4c(c(-c5ccc(F)c(Cl)c5)c(C(F)(F)F)cc24)SC[C@@H](OCOC)C3)C[C@@H]1C` [Example 13-78] stands “− (Compounds that did not meet this threshold are indicated as “−”)”.
Regarding `C=CC(=O)N1[C@H](C)CN(c2nc(=O)n3c4c(c(-c5ccc(F)cc5F)c(C(F)(F)F)cc24)SC[C@@H]3COC)C[C@@H]1C` [Example 13-13], the BBB activity result is given as “+ (Compounds that were measured as having a total concentration in the brain of at least 60 ng/g are indicated as “+”)”.
In the case of `C=CC(=O)N1C[C@H](C)N(c2nc(=O)n3c4c(c(-c5cc(Cl)c(F)cc5F)c(Cl)cc24)SC[C@@H]3CN2CCN(CC(F)F)CC2)C[C@H]1C` [Example 13-56], the BBB activity entry was “− (Compounds that did not meet this threshold are indicated as “−”)”.
`C=CC(=O)N1[C@H](C)CN(c2nc(=O)n3c4c(c(-c5cc(Cl)c(F)cc5F)c(C(F)(F)F)cc24)SC[C@@H](Nc2ncccn2)C3)C[C@@H]1C` [Example 13-90]: the BBB activity entry is on record as “− (Compounds that did not meet this threshold are indicated as “−”)”.
Regarding `C=CC(=O)N1C[C@H](C)N(c2nc(=O)n3c4c(c(-c5ccc(F)cc5F)c(Cl)cc24)SCC3)C[C@H]1C` [Example 13-18], the BBB activity entry is “+ (Compounds that were measured as having a total concentration in the brain of at least 60 ng/g are indicated as “+”)”.
For `C=CC(=O)N1CCN(c2nc(=O)n(-c3c(C)ccnc3C(C)C)c3nc(-c4c(O)cccc4F)c(F)cc23)[C@@H](C)C1` [Example 13-92] the value was “− (Compounds that did not meet this threshold are indicated as “−”)”.
